Experimental data published in the supplement of paper PMC11061612.

Key:
[1] = compound: CN(C)CCCOc1ccc(-c2ccc3ncc4c(c3c2)n(C2CCOCC2)c(=O)n4C)cn1 [AZD0156]; details: max 3 µM
Method in brief: (§1)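 Cancer cell lines were seeded into 1536-well plates in 7.5 μl medium (DMEM/F12 or RPMI, 10% FBS), held 24 hours at 37°C and 5% CO2, and dosed for 72 hours with final DMSO typically 0.2%. Luminescence from CellTiter-Glo 2.0, scaled between blank-well and DMSO-well means, served as viability. The single-agent IC50 was obtained from dose-response fits with a non-linear mixed effects model, each fit being a two-parameter logistic curve.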

[2] = compound: C[C@@H](c1ccc2nccn2c1)n1nnc2ncc(-c3cnn(C)c3)nc21 [Savolitinib]; details: max 1 µM
Method in brief: as §1

[3] = compound: Cc1cc2ncnn2cc1Nc1ncc2c(n1)n(C1CCOCC1)c(=O)n2C [AZD7648]; details: max 10 µM
Method in brief: as §1

[4] = compound: CC(=O)Nc1cccc(-n2c(=O)n(C3CC3)c(=O)c3c(Nc4ccc(I)cc4F)n(C)c(=O)c(C)c32)c1 [Trametinib]; details: max 1 µM
Method in brief: as §1

[5] = compound: Cc1c2c(nn1C)CSCc1cc(n(C)n1)CSc1cc(c3ccccc3c1)OCCCc1c(C(=O)O)n(C)c3c-2c(Cl)ccc13 [AZD5991]; details: max 1 µM
Method in brief: as §1

[6] = compound: COc1cc(Nc2ncc3c(n2)-c2ccc(Cl)cc2C(c2c(F)cccc2OC)=NC3)ccc1C(=O)O [Alisertib]; details: max 10 µM
Method in brief: as §1

[7] = compound: CC1(C)CCC(CN2CCN(c3ccc(C(=O)NS(=O)(=O)c4ccc(NCC5CCOCC5)c([N+](=O)[O-])c4)c(Oc4cnc5[nH]ccc5c4)c3)CC2)=C(c2ccc(Cl)cc2)C1 [Venetoclax]; details: max 1 µM
Method in brief: as §1

[8] = compound: C1CN(CCC1(C(=O)N[C@@H](CCO)C2=CC=C(C=C2)Cl)N)C3=NC=NC4=C3C=CN4 [Capivasertib]; details: max 10 µM
Method in brief: as §1

[9] = compound: Cn1cnc2c(F)c(Nc3ccc(Br)cc3Cl)c(C(=O)NOCCO)cc21 [Selumetinib]; details: max 10 µM
Method in brief: as §1

[10] = compound: Cc1nc(-c2cn3c(n2)-c2ccc(-c4cnn(C(C)(C)C(N)=O)c4)cc2OCC3)n(C(C)C)n1 [Taselisib]; details: max 10 µM
Method in brief: as §1

[11] = compound: C[C@@H]1COCCN1C2=NC(=NC(=C2)C3(CC3)[S@](=N)(=O)C)C4=C5C=CNC5=NC=C4 [AZD6738]; details: max 10 µM
Method in brief: as §1

[12] = compound: CCc1c2c(nc3ccc(O)cc13)-c1cc3c(c(=O)n1C2)COC(=O)[C@]3(O)CC [SN-38]; details: max 0.3 µM
Method in brief: as §1

[13] = compound: CC(=O)c1c(C)c2cnc(Nc3ccc(N4CCNCC4)cn3)nc2n(C2CCCC2)c1=O [Palbociclib]; details: max 10 µM
Method in brief: as §1

[14] = compound: COc1cccc(OCCCN)c1-c1cc(Nc2cnc(C#N)cn2)n[nH]1 [Prexasertib]; details: max 1 µM
Method in brief: as §1

[15] = compound: CC1=C(C(=CC=C1)Cl)NC(=O)C2=CN=C(S2)NC3=CC(=NC(=N3)C)N4CCN(CC4)CCO [Dasatinib]; details: max 2 µM
Method in brief: as §1

[16] = compound: CN(CC[C@H](CSC1=CC=CC=C1)NC2=C(C=C(C=C2)S(=O)(=O)NC(=O)C3=CC=C(C=C3)N4CCC(CC4)[C@H](C5=CC=CC=C5C6=CC=C(C=C6)Cl)O)S(=O)(=O)C(F)(F)F)CCO [AZD4320]; details: max 1 µM
Method in brief: as §1

[17] = compound: C[C@@H](Nc1cc(F)cc(F)c1)c1cc(C(=O)N(C)C)cc2c(=O)cc(N3CCOCC3)oc12 [AZD8186]; details: max 3 µM
Method in brief: as §1

[18] = compound: CCN(CCO)CCCOc1ccc2c(Nc3cc(CC(=O)Nc4cccc(F)c4)[nH]n3)ncnc2c1 [AZD2811]; details: max 1 µM
Method in brief: as §1

[19] = compound: C[C@@H](Oc1cc(-c2cnn(C3CCNCC3)c2)cnc1N)c1c(Cl)ccc(F)c1Cl [Crizotinib]; details: max 10 µM
Method in brief: as §1

[20] = compound: COc1nnc2ccc(N3CCC(c4ccc(OCCN5CCN(C)C(=O)[C@H]5C)cc4)CC3)nn12 [AZD5153]; details: max 1 µM
Method in brief: as §1

[21] = compound: CS(=O)(=O)CCNCc1ccc(-c2ccc3ncnc(Nc4ccc(OCc5cccc(F)c5)c(Cl)c4)c3c2)o1 [Lapatinib]; details: max 10 µM
Method in brief: as §1

[22] = compound: CC(C)n1c(=O)n(C)c2cnc3cc(F)c(-c4ccc(OCCCN5CCCCC5)nc4)cc3c21 [AZD1390]; details: max 0.3 µM
Method in brief: as §1

[23] = compound: CC1=CN2[C@@H](C1)C=NC3=CC(=C(C=C3C2=O)OC)OCCCCCOC4=C(C=C5C(=C4)N=C[C@@H]6CC(=CN6C5=O)C)OC [SG3199]; details: max 0.001 µM
Method in brief: as §1

[24] = compound: C=CCn1c(=O)c2cnc(Nc3ccc(N4CCN(C)CC4)cc3)nc2n1-c1cccc(C(C)(C)O)n1 [AZD1775]; details: max 3 µM
Method in brief: as §1

[25] = compound: COc1cccc2c1C(=O)c1c(O)c3c(c(O)c1C2=O)C[C@@](O)(C(=O)CO)C[C@@H]3O[C@H]1C[C@H](N)[C@H](O)[C@H](C)O1 [Doxorubicin]; details: max 1 µM
Method in brief: as §1

[26] = compound: COc1cc2ncnc(Nc3ccc(F)c(Cl)c3)c2cc1OCCCN1CCOCC1 [Gefitinib]; details: max 10 µM
Method in brief: as §1

[27] = compound: O=C(c1cc(Cc2n[nH]c(=O)c3ccccc23)ccc1F)N1CCN(C(=O)C2CC2)CC1 [Olaparib]; details: max 10 µM
Method in brief: as §1

Cell Line	IC50, cell viability 72 h [1]	IC50, cell viability 72 h [2]	IC50, cell viability 72 h [3]	IC50, cell viability 72 h [4]	IC50, cell viability 72 h [5]	IC50, cell viability 72 h [6]	IC50, cell viability 72 h [7]	IC50, cell viability 72 h [8]	IC50, cell viability 72 h [9]	IC50, cell viability 72 h [10]	IC50, cell viability 72 h [11]	IC50, cell viability 72 h [12]	IC50, cell viability 72 h [13]	IC50, cell viability 72 h [14]	IC50, cell viability 72 h [15]	IC50, cell viability 72 h [16]	IC50, cell viability 72 h [17]	IC50, cell viability 72 h [18]	IC50, cell viability 72 h [19]	IC50, cell viability 72 h [20]	IC50, cell viability 72 h [21]	IC50, cell viability 72 h [22]	IC50, cell viability 72 h [23]	IC50, cell viability 72 h [24]	IC50, cell viability 72 h [25]	IC50, cell viability 72 h [26]	IC50, cell viability 72 h [27]
ATN-1 (T-Lymphoblastic Leukemia)	> 3 µM	> 1 µM	> 10 µM	> 1 µM	0.109 µM	0.0401 µM	> 1 µM	2.02 µM	> 10 µM	0.083 µM	0.664 µM	0.00553 µM	5.84 µM	0.00209 µM	1.7 µM	0.13 µM	2.2 µM	0.0188 µM	1.41 µM	0.482 µM	> 10 µM	> 0.3 µM	> 0.001 µM	0.0601 µM	0.0454 µM	> 10 µM	> 10 µM
BT-474 (Breast Carcinoma)	> 3 µM	> 1 µM	> 10 µM	> 1 µM	> 1 µM	> 10 µM	> 1 µM	> 10 µM	> 10 µM	0.779 µM	> 10 µM	> 0.3 µM	> 10 µM	> 1 µM	> 2 µM	> 1 µM	> 3 µM	> 1 µM	> 10 µM	> 1 µM	2.54 µM	> 0.3 µM	> 0.001 µM	> 3 µM	> 1 µM	> 10 µM	> 10 µM
C2BBe1 (Colorectal Carcinoma)	> 3 µM	> 1 µM	> 10 µM	0.818 µM	> 1 µM	> 10 µM	> 1 µM	> 10 µM	> 10 µM	2.99 µM	> 10 µM	> 0.3 µM	> 10 µM	> 1 µM	> 2 µM	> 1 µM	> 3 µM	> 1 µM	> 10 µM	> 1 µM	> 10 µM	> 0.3 µM	> 0.001 µM	2.7 µM	> 1 µM	> 10 µM	> 10 µM
DK-MG (Glioblastoma)	> 3 µM	> 1 µM	> 10 µM	0.375 µM	> 1 µM	> 10 µM	> 1 µM	> 10 µM	> 10 µM	> 10 µM	> 10 µM	> 0.3 µM	> 10 µM	> 1 µM	> 2 µM	> 1 µM	2.85 µM	> 1 µM	4.99 µM	0.803 µM	> 10 µM	> 0.3 µM	> 0.001 µM	2.15 µM	> 1 µM	> 10 µM	> 10 µM
